Laboratory results: patent US20210196816A1, “ALGAE COMPRISING THERAPEUTIC AND/OR NUTRITIONAL AGENTS” (TomAlgae CVBA, priority 2016, published 2021)

Legend:
algae cells [1] = test: Loading of freeze-dried algae with vitamin C by rehydration; vitamin C in algal cells by HPLC-DAD; parameters: species or system Cyclotella meneghiniana; conditions: rehydration in 5 g/L vitamin C; incubation at 28° C.
Description: A rehydration composition was prepared by dissolving 500 mg per litre vitamin C in filtered natural (North Sea) seawater (20° C.). A second rehydration composition was prepared by dissolving 5 g per litre vitamin C in the seawater. As a control, a third rehydration composition consisted of just the clean seawater without any vitamin C added.
The algae were then rehydrated by adding one of the rehydration compositions to a standard kitchen blender (Kenwood KM230, 650 W, with blender attachment). The blender was switched on at a moderate mixing speed (speed 4) to agitate the rehydration composition. Then 10 g per litre of freeze-dried algae was added to the rehydration composition while mixing, and the freeze-dried algae was allowed to blend into the rehydration composition for 2 minutes. Cell integrity after rehydration was verified using a microscope.
Each of the three rehydration compositions comprising rehydrated algae were split into six replicates. Three replicates of each composition were harvested immediately after rehydration. The remaining three replicates of the treatment groups were incubated in a water bath at 28° C. and provided with moderate aeration. […]
The concentration of vitamin C in the algal cells of the treatment groups and control at the different time points were then analysed by high-performance liquid chromatography with Diode-Array Detection.

algae cells [2] = test: Loading of algae with astaxanthin, microscopic examination; parameters: species or system Cyclotella meneghiniana; conditions: over 24 hours
Description: A rehydration composition was prepared by adding 1 g of synthetic astaxanthin to 200 ml of fresh, potable water, then microwaving 3 times for 1 min each time.
The algae were then rehydrated by blending the astaxanthin solution (suspension) together with 1 litre of potable water and 200 mg of the algae powder for 2 minutes.
Astaxanthin particles were able to penetrate inside algae cells and were also absorbed by the porous surface of the siliceous exoskeleton (frustule).

time for which the vitamin C level in the algae cells was maintained (algae cells [1])	stability of association of astaxanthin particles within algae cells (algae cells [2])	Compound
≥ 6 h		O=C1O[C@H]([C@@H](O)CO)C(O)=C1O [vitamin C]
	remained stable	CC1=C(/C=C/C(C)=C/C=C/C(C)=C/C=C/C=C(C)/C=C/C=C(C)/C=C/C2=C(C)C(=O)[C@@H](O)CC2(C)C)C(C)(C)C[C@H](O)C1=O [astaxanthin]
